Reference: patent EP1935986B1, “Luminogenic and fluorogenic compounds and methods to detect molecules or conditions” (priority 2005, dated 2006)

Columns and labels:
[1] = system: thermostable luciferase (Luc 146-1H2); experiment: Residual thermostable luciferase activity after reaction with luciferin derivatives (Steady Glo); assay type: biochemical
Description: (§1) This stock was used to produce enzyme stock solution having of 200 µg/ml enzyme solution in 1 mg/ml BSA, 200 mM HEPES buffer, pH 8.0, 20 mM MgCl2.
(§2) Solutions were made using a 1 M DTT solution, pH adjusted to 8.0, a 20 mM Coenzyme A solution in water (both described in examples above), a 100 mM ATP solution and water to create the following solutions: Sol'A, 100 µM ATP; Sol'B, 100 µM ATP, 4 mM Coenzyme A; Sol'n C, 100 µM ATP, 400 mM DTT, and; Sol'n D, 100 µM ATP, 4 mM Coenzyme A and 400 mM DTT.
(§3) After assembly, the reactions were initiated by addition of 25 µl of the thermostable luciferase stock solution above and mixing the tube contents. A 50 µl sample was immediately removed and placed in a luminometer tube and the light read and the tube then replaced in a tube rack at room temperature. While the light reading was being taken, a 5 µl sample of the remaining reaction (which was kept at room temperature) was diluted into 495 µl of 50 mM BisTris, pH 6.5, 1 mg/ml BSA, 1 mM EDTA prechilled to 4°C and the tube mixed and placed on ice. The light produced by the samples in the luminometer tubes were re-read at 20, 40, 60, 90 and 120 minutes post enzyme addition. Additional 5 µl samples were taken and diluted as above at 60 and 120 minutes post enzyme addition. Once all these readings and samples were taken, 50 µl of the diluted samples was mixed with 50 µl of Steady Glo in luminometer tubes, the tubes incubated 10 minutes on ice then the light produced was read on a Turner TD 20/20 luminometer.

[2] = system: thermostable luciferase (Luc 146-1H2); experiment: Thermostable luciferase reaction with luciferin derivatives: light readings; assay type: biochemical
Description: as §1, §2
The following reactions were prepared (Table 47) Table 47
as §3

SMILES: O=C(O)[C@H]1CSC(c2nc3ccc(OCCCl)cc3s2)=N1 [L'in-CEE]
- light values obtained upon addition of the diluted reaction samples into Steady Glo reagent ([1]; Substrate 6.25, + Co A & DTT, Time Sample Taken 0 min): 1836
- light values obtained upon addition of the diluted reaction samples into Steady Glo reagent ([1]; Substrate 6.25, + Co A & DTT, Time Sample Taken 60 min): 1625
- light values obtained upon addition of the diluted reaction samples into Steady Glo reagent ([1]; Substrate 6.25, + Co A & DTT, Time Sample Taken 120 min): 1622
- light values obtained upon addition of the diluted reaction samples into Steady Glo reagent ([1]; Substrate 6.25, + Co A, Time Sample Taken 0 min): 1647
- light values obtained upon addition of the diluted reaction samples into Steady Glo reagent ([1]; Substrate 6.25, + Co A, Time Sample Taken 60 min): 976.8
- light values obtained upon addition of the diluted reaction samples into Steady Glo reagent ([1]; Substrate 6.25, + Co A, Time Sample Taken 120 min): 921.4
- light values obtained upon addition of the diluted reaction samples into Steady Glo reagent ([1]; Substrate 6.25, + DTT, Time Sample Taken 0 min): 1631
- light values obtained upon addition of the diluted reaction samples into Steady Glo reagent ([1]; Substrate 6.25, + DTT, Time Sample Taken 60 min): 1544
- light values obtained upon addition of the diluted reaction samples into Steady Glo reagent ([1]; Substrate 6.25, + DTT, Time Sample Taken 120 min): 1695
- light values obtained upon addition of the diluted reaction samples into Steady Glo reagent ([1]; Substrate 6.25, Alone, Time Sample Taken 0 min): 1402
- light values obtained upon addition of the diluted reaction samples into Steady Glo reagent ([1]; Substrate 6.25, Alone, Time Sample Taken 60 min): 1158
- light values obtained upon addition of the diluted reaction samples into Steady Glo reagent ([1]; Substrate 6.25, Alone, Time Sample Taken 120 min): 1073
- light values obtained upon addition of the diluted reaction samples into Steady Glo reagent ([1]; Substrate 25, + Co A & DTT, Time Sample Taken 0 min): 529.6
- light values obtained upon addition of the diluted reaction samples into Steady Glo reagent ([1]; Substrate 25, + Co A & DTT, Time Sample Taken 60 min): 1268
- light values obtained upon addition of the diluted reaction samples into Steady Glo reagent ([1]; Substrate 25, + Co A & DTT, Time Sample Taken 120 min): 1329
- light values obtained upon addition of the diluted reaction samples into Steady Glo reagent ([1]; Substrate 25, + Co A, Time Sample Taken 0 min): 1547
- light values obtained upon addition of the diluted reaction samples into Steady Glo reagent ([1]; Substrate 25, + Co A, Time Sample Taken 60 min): 777.5
- light values obtained upon addition of the diluted reaction samples into Steady Glo reagent ([1]; Substrate 25, + Co A, Time Sample Taken 120 min): 588.7
- light values obtained upon addition of the diluted reaction samples into Steady Glo reagent ([1]; Substrate 25, + DTT, Time Sample Taken 0 min): 1116
- light values obtained upon addition of the diluted reaction samples into Steady Glo reagent ([1]; Substrate 25, + DTT, Time Sample Taken 60 min): 1372
- light values obtained upon addition of the diluted reaction samples into Steady Glo reagent ([1]; Substrate 25, + DTT, Time Sample Taken 120 min): 1393
- light values obtained upon addition of the diluted reaction samples into Steady Glo reagent ([1]; Substrate 25, Alone, Time Sample Taken 0 min): 1345
- light values obtained upon addition of the diluted reaction samples into Steady Glo reagent ([1]; Substrate 25, Alone, Time Sample Taken 60 min): 973.4
- light values obtained upon addition of the diluted reaction samples into Steady Glo reagent ([1]; Substrate 25, Alone, Time Sample Taken 120 min): 860.3
- light readings from the reaction samples ([2]; substrate 6.25 (L'in-BE: 6.26), + Co A & DTT, Time 0 min): 77.35
- light readings from the reaction samples ([2]; substrate 6.25 (L'in-BE: 6.26), + Co A & DTT, Time 20 min): 7.958
- light readings from the reaction samples ([2]; substrate 6.25 (L'in-BE: 6.26), + Co A & DTT, Time 40 min): 3.656
- light readings from the reaction samples ([2]; substrate 6.25 (L'in-BE: 6.26), + Co A & DTT, Time 60 min): 2.312
- light readings from the reaction samples ([2]; substrate 6.25 (L'in-BE: 6.26), + Co A & DTT, Time 90 min): 1.414
- light readings from the reaction samples ([2]; substrate 6.25 (L'in-BE: 6.26), + Co A & DTT, Time 120 min): 1.134
- light readings from the reaction samples ([2]; substrate 6.25 (L'in-BE: 6.26), + Co A, Time 0 min): 1829
- light readings from the reaction samples ([2]; substrate 6.25 (L'in-BE: 6.26), + Co A, Time 20 min): 114
- light readings from the reaction samples ([2]; substrate 6.25 (L'in-BE: 6.26), + Co A, Time 40 min): 57.82
- light readings from the reaction samples ([2]; substrate 6.25 (L'in-BE: 6.26), + Co A, Time 60 min): 37.53
- light readings from the reaction samples ([2]; substrate 6.25 (L'in-BE: 6.26), + Co A, Time 90 min): 24.66
- light readings from the reaction samples ([2]; substrate 6.25 (L'in-BE: 6.26), + Co A, Time 120 min): 17.02
- light readings from the reaction samples ([2]; substrate 6.25 (L'in-BE: 6.26), + DTT, Time 0 min): 72.52
- light readings from the reaction samples ([2]; substrate 6.25 (L'in-BE: 6.26), + DTT, Time 20 min): 5.903
- light readings from the reaction samples ([2]; substrate 6.25 (L'in-BE: 6.26), + DTT, Time 40 min): 3.073
- light readings from the reaction samples ([2]; substrate 6.25 (L'in-BE: 6.26), + DTT, Time 60 min): 2.089
- light readings from the reaction samples ([2]; substrate 6.25 (L'in-BE: 6.26), + DTT, Time 90 min): 1.431
- light readings from the reaction samples ([2]; substrate 6.25 (L'in-BE: 6.26), + DTT, Time 120 min): 1.125
- light readings from the reaction samples ([2]; substrate 6.25 (L'in-BE: 6.26), Alone, Time 0 min): 121
- light readings from the reaction samples ([2]; substrate 6.25 (L'in-BE: 6.26), Alone, Time 20 min): 5.884
- light readings from the reaction samples ([2]; substrate 6.25 (L'in-BE: 6.26), Alone, Time 40 min): 3.316
- light readings from the reaction samples ([2]; substrate 6.25 (L'in-BE: 6.26), Alone, Time 60 min): 2.352
- light readings from the reaction samples ([2]; substrate 6.25 (L'in-BE: 6.26), Alone, Time 90 min): 1.569
- light readings from the reaction samples ([2]; substrate 6.25 (L'in-BE: 6.26), Alone, Time 120 min): 1.154
- light readings from the reaction samples ([2]; substrate 25, + Co A & DTT, Time 0 min): 57.98
- light readings from the reaction samples ([2]; substrate 25, + Co A & DTT, Time 20 min): 5.721
- light readings from the reaction samples ([2]; substrate 25, + Co A & DTT, Time 40 min): 3.272
- light readings from the reaction samples ([2]; substrate 25, + Co A & DTT, Time 60 min): 2.192
- light readings from the reaction samples ([2]; substrate 25, + Co A & DTT, Time 90 min): 1.379
- light readings from the reaction samples ([2]; substrate 25, + Co A & DTT, Time 120 min): 1.174
- light readings from the reaction samples ([2]; substrate 25, + Co A, Time 0 min): 489.2
- light readings from the reaction samples ([2]; substrate 25, + Co A, Time 20 min): 45.45
- light readings from the reaction samples ([2]; substrate 25, + Co A, Time 40 min): 25.08
- light readings from the reaction samples ([2]; substrate 25, + Co A, Time 60 min): 16.96
- light readings from the reaction samples ([2]; substrate 25, + Co A, Time 90 min): 11.03
- light readings from the reaction samples ([2]; substrate 25, + Co A, Time 120 min): 7.309
- light readings from the reaction samples ([2]; substrate 25, + DTT, Time 0 min): 56.59
- light readings from the reaction samples ([2]; substrate 25, + DTT, Time 20 min): 3.761
- light readings from the reaction samples ([2]; substrate 25, + DTT, Time 40 min): 2.196
- light readings from the reaction samples ([2]; substrate 25, + DTT, Time 60 min): 1.668
- light readings from the reaction samples ([2]; substrate 25, + DTT, Time 90 min): 1.274
- light readings from the reaction samples ([2]; substrate 25, + DTT, Time 120 min): 1.157
- light readings from the reaction samples ([2]; substrate 25, Alone, Time 0 min): 59.87
- light readings from the reaction samples ([2]; substrate 25, Alone, Time 20 min): 3.176
- light readings from the reaction samples ([2]; substrate 25, Alone, Time 40 min): 1.919
- light readings from the reaction samples ([2]; substrate 25, Alone, Time 60 min): 1.305
- light readings from the reaction samples ([2]; substrate 25, Alone, Time 90 min): 1.178
- light readings from the reaction samples ([2]; substrate 25, Alone, Time 120 min): 1.03
- light readings from the reaction samples ([2]; substrate 100, + Co A & DTT, Time 0 min): 25.41
- light readings from the reaction samples ([2]; substrate 100, + Co A & DTT, Time 20 min): 3.278
- light readings from the reaction samples ([2]; substrate 100, + Co A & DTT, Time 40 min): 2.027
- light readings from the reaction samples ([2]; substrate 100, + Co A & DTT, Time 60 min): 1.666
- light readings from the reaction samples ([2]; substrate 100, + Co A & DTT, Time 90 min): 1.27
- light readings from the reaction samples ([2]; substrate 100, + Co A & DTT, Time 120 min): 1.157
- light readings from the reaction samples ([2]; substrate 100, + Co A, Time 0 min): 97.88
- light readings from the reaction samples ([2]; substrate 100, + Co A, Time 20 min): 10.3
- light readings from the reaction samples ([2]; substrate 100, + Co A, Time 40 min): 7.127
- light readings from the reaction samples ([2]; substrate 100, + Co A, Time 60 min): 5.562
- light readings from the reaction samples ([2]; substrate 100, + Co A, Time 90 min): 3.969
- light readings from the reaction samples ([2]; substrate 100, + Co A, Time 120 min): 2.845
- light readings from the reaction samples ([2]; substrate 100, + DTT, Time 0 min): 22.47
- light readings from the reaction samples ([2]; substrate 100, + DTT, Time 20 min): 2.233
- light readings from the reaction samples ([2]; substrate 100, + DTT, Time 40 min): 1.292
- light readings from the reaction samples ([2]; substrate 100, + DTT, Time 60 min): 1.164
- light readings from the reaction samples ([2]; substrate 100, + DTT, Time 90 min): 1.093
- light readings from the reaction samples ([2]; substrate 100, + DTT, Time 120 min): 0.958
- light readings from the reaction samples ([2]; substrate 100, Alone, Time 0 min): 20.46
- light readings from the reaction samples ([2]; substrate 100, Alone, Time 20 min): 1.18
- light readings from the reaction samples ([2]; substrate 100, Alone, Time 40 min): 0.868
- light readings from the reaction samples ([2]; substrate 100, Alone, Time 60 min): 0.788
- light readings from the reaction samples ([2]; substrate 100, Alone, Time 90 min): 0.627
- light readings from the reaction samples ([2]; substrate 100, Alone, Time 120 min): 0.544
